Results as given in patent US20190351031A1, “METHODS OF SELECTING SUBJECTS FOR COMBINATION CANCER THERAPY WITH A POLYMER-CONJUGATED SOLUBLE PH20” (HALOZYME, INC., priority 2018, published 2019).

Key:
[1] = route: IV or PO; cited from earlier work
[2] = biological target: T1, cytidine deaminase (Homo sapiens, UniProt P32320); conditions: cited from earlier work
T1 construct: for the enzyme purified from human liver; host or cells: human liver

[3] = in vivo; cited from earlier work
[4] = tested on: pancreatic cancer; conditions: gemcitabine monotherapy (Burris et al. 1997); cited from earlier work
[5] = tested on: BxPC3 pancreatic cancer cell line; experiment: Tumor growth inhibition in BxPC-3 human pancreatic tumor xenograft model; assay type: in vivo, mouse; conditions: gemcitabine 60, 120, 180 and 240 mg/kg once a week, day 0, 7, 14, 21
Experimental: Tumor cells from the BxPC3 pancreatic cancer cell line (American Tissue Culture Collection (ATCC) CRL-1687) were grown to approximately 80% confluency, trypsinized, collected, washed once in HBSS (Hank's balance salt solution, Mediatech Inc.). Prior to inoculation, cells were washed twice with sterile HBSS, counted using a Nexcelom Cellometer (Nexcelom Bioscience; Lawrence, Mass.) automated counting device which determines cell concentration and viability via Trypan Blue exclusion and diluted with HBSS to a concentration of 1×10^8 cells/mL on ice before inoculation into animals. Male nude mice (Athymic NCr nu/nu mice, Taconic Laboratories, Inc.) approximately 6 weeks old, were inoculated intramuscularly (IM) with 0.05 mL of cell suspension, peritibially, in the left hind leg (adjacent to the tibia periosteum). The tumors in the animals were assessed twice a week and allowed to grow to a mean tumor volume of approximately 350-400 mm^3. Actual tumor volumes were determined using VisualSonics Vevo 770 high-resolution ultrasound (VisulaSonics Inc.; Toronto, Ontario, Canada). […]
The tumor volumes of all mice were measured by capturing images using the VisualSonics ultrasound system 2 times per week. Tumor volume was calculated using a 3D-mode imaging software program (VisualSonics® Vevo 770®, v 3.0.0). The percent tumor growth inhibition (% TGI) was calculated by the following equation: […]

[6] = tested on: carbohydrate antigen 19-9 (CA19-9); experiment: Serum CA19-9 tumor biomarker ELISA in BxPC-3 xenograft model; assay type: in vivo, mouse; conditions: day 20 of first dosing cycle
Experimental: C. Measurement of Tumor Biomarkers Biomarkers carbohydrate antigen 19-9 (CA19-9) and carcinoembryonic antigen (CEA) associated with pancreatic cancer were tested to measure therapeutic response. Animals were treated as described in part A. Serum was collected from satellite animals ([…]) from each group on day 0, 6, 13 and 20 of the first dosing cycle. Human CA19-9 was measured using a CA 19-9 ELISA kit (Catalog No. CA199T, Calbiotech, Spring Valley, Calif.) and CEA tumor antigen was measured using a CEA ELISA kit (Catalog No. CE062T, Calbiotech, Spring Valley, Calif.).

[7] = tested on: BxPC3 pancreatic cancer cell line; experiment: Median survival time (time to survival endpoint) in BxPC-3 xenograft model; assay type: in vivo, mouse; conditions: three 4-week dosing cycles; PEGPH20 4.5, nab-paclitaxel 10 mg/kg, gemcitabine 180 mg/kg
Experimental: Following the first four week dosing cycle as set forth in part A, the dosing cycle was repeated two times and time to survival endpoint was followed over time. Briefly, in each dosing cycle, animals were treated with vehicle or PEGPH20 ([…]) with or without nab-paclitaxel (10 mg/kg) intravenously twice a week for four weeks. In each cycle, groups receiving gemcitabine were administered gemcitabine (180 mg/kg) 24 hours after PEGPH20 and/or nab-paclitaxel every 7 days for three weeks of the dose cycle. Time to survival endpoint, a measure of animal survival, was defined as (a) time to tumor volume of greater than 2000 mm^3, (b) time to a greater than 20% bodyweight loss, or (c) time to animal duress or death.

[8] = tested on: B16 melanoma model; conditions: oral 600 mg/kg/d (Yoshihara et al. 2005); cited from earlier work

T1 sequence (P32320 whole entry): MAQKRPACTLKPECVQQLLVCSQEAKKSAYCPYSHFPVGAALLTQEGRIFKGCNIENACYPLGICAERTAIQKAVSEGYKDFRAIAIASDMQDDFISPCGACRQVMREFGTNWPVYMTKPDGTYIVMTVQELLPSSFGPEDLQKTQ

C[C@]12C=CC(=O)C=C1CC[C@@H]1[C@@H]2[C@@H](O)C[C@@]2(C)[C@H]1CC[C@]2(O)C(=O)CO [Prednisolone]
Equivalent Potency [1]: 5 mg

C[C@H]1C[C@@H]2[C@H]([C@@H](O)C[C@@]3(C)[C@H]2CC[C@]3(O)C(=O)COC(=O)CCC(=O)O)[C@@]2(C)C=CC(=O)C=C12 [Methylprednisolone sodium succinate]
Equivalent Potency [1]: 4 mg

Nc1ccn([C@H]2C[C@H](O)[C@@H](CO)O2)c(=O)n1 [deoxycytidine]
rate of deamination relative to decitabine at equal concentrations [2]: about 6 fold

Nc1ccn([C@@H]2O[C@H](CO)[C@@H](O)C2(F)F)c(=O)n1 [gemcitabine, 2′,2′-difluorodeoxycytidine]
half-life in plasma [3]: approximately 10 minutes
median survival [4]: over 5 months
tumor growth compared to vehicle only [5]: inhibited tumor growth at all doses tested
level of CA19-9 marker in serum [6]: approximately similar to vehicle only control
Median Survival Time [7]: 38 days

Cc1cc(=O)oc2cc(O)ccc12 [4-MU, 7-hydroxy-4-methylcoumarin]
reduction of metastases [8]: 64%

C[C@]12CCC(=O)C=C1CC[C@@H]1[C@@H]2[C@@H](O)C[C@@]2(C)[C@H]1CC[C@]2(O)C(=O)CO [Hydrocortisone]
Equivalent Potency [1]: 20 mg
